The values that follow come from patent US10513521B2, “Compositions and methods for inhibiting BMP” (The Brigham and Women's Hospital, Inc., priority 2014, dated 2019).

Where a chain is given by its changes, count along the chain named.

The target in one assay is T1, ALK4 (Homo sapiens, UniProt P36896).
T1 sequence (P36896 24-505): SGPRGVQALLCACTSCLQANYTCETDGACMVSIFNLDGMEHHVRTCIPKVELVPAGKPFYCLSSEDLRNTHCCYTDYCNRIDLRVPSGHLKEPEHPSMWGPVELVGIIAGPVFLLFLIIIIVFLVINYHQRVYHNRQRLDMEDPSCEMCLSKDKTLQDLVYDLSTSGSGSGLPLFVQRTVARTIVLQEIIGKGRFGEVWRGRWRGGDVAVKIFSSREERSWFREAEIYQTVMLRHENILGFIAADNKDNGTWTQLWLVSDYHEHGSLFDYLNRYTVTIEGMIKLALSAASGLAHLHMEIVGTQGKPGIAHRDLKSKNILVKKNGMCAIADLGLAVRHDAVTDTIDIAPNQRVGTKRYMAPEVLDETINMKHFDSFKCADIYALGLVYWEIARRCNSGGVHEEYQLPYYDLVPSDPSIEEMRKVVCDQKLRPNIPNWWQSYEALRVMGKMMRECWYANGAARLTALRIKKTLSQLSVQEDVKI
Kind of assay: TR-FRET enzymatic ALK kinase assay, ALK4.

The target in another assay is ALK3 (Homo sapiens, UniProt P36894). Kind of assay: TR-FRET enzymatic ALK kinase assay, ALK3.
The target in another assay is ALK6 (Homo sapiens, UniProt O00238). The assay can be described thus: TR-FRET enzymatic ALK kinase assay, ALK6.
For a further assay, the target named is T2, ALK5 (Homo sapiens, UniProt P36897).
T2 sequence (P36897 34-503): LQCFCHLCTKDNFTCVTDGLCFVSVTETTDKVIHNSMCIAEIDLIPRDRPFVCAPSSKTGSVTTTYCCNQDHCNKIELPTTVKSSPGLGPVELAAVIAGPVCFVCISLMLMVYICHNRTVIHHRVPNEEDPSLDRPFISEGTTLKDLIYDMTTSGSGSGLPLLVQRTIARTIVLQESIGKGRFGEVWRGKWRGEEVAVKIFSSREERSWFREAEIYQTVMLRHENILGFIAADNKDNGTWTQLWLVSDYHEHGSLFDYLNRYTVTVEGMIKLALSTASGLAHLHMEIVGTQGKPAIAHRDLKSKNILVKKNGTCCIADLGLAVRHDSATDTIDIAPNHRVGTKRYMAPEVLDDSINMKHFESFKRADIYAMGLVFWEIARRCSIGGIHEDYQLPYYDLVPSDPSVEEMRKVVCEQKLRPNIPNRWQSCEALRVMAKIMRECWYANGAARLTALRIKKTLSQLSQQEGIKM
The assay can be described thus: TR-FRET enzymatic ALK kinase assay, ALK5. (In general: In TR-FRET formats the signal depends on donor and acceptor labels being close together.)

Assay [1] in a line: Cell-based assay, TGFb1 (Cell IC50).
The target of assay [2] is T3, ALK2 (Homo sapiens, UniProt Q04771).
T3 sequence (Q04771 21-509): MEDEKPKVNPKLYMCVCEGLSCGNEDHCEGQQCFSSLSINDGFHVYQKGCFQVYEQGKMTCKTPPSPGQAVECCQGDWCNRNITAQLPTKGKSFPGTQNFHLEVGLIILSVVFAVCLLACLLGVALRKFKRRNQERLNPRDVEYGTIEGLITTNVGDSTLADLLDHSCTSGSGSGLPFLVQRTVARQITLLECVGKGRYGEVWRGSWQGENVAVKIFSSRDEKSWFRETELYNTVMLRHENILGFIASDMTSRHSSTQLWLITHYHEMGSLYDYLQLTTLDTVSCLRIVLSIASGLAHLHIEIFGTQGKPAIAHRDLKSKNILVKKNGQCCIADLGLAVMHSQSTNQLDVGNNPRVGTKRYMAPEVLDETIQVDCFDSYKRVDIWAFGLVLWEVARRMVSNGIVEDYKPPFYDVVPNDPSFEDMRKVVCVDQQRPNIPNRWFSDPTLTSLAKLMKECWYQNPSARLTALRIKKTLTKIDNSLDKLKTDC
Kind of assay: TR-FRET enzymatic ALK kinase assay, ALK2.
Procedure: (§1) Briefly, the ALKs enzymatic assay was initiated by dispense 2.5 μl enzyme in 1× kinase reaction buffer. The assay plate was then added with compounds followed by incubation at room temperature for 10 minutes. Then 2.5 μl/well substrate was added.

In a further assay the target is ALK1 (Homo sapiens, UniProt P37023). The assay can be described thus: TR-FRET enzymatic ALK kinase assay, ALK1.
For assay [3], the target named is T4, ALK2 (Mus musculus, UniProt P37172).
T4 construct: The C2C12 cell line was selected for the measurement of ALK2 activity using BMP6 as the agonist; host or cells: C2C12
T4 sequence (P37172 21-509): T3 sequence (Q04771 21-509) with M1V, P10Q, L121I, D162E, P310S
Kind of assay: HTRF pSMAD1 cell-based ALK2 assay (C2C12 cells, BMP6 as agonist). Conditions: cell-based assay, BMP6; read-out: Cell IC50 BMP6. In outline: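 Cells pre-starved, plated in 0.1% FBS medium for 4 h, compound added for 30 min, then stimulated 30 min with BMP9 (BAOEC) or BMP6 (C2C12). Phospho-SMAD1 measured by HTRF after overnight room-temperature detection incubation.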

ALK1, sequence (P37023 22-503): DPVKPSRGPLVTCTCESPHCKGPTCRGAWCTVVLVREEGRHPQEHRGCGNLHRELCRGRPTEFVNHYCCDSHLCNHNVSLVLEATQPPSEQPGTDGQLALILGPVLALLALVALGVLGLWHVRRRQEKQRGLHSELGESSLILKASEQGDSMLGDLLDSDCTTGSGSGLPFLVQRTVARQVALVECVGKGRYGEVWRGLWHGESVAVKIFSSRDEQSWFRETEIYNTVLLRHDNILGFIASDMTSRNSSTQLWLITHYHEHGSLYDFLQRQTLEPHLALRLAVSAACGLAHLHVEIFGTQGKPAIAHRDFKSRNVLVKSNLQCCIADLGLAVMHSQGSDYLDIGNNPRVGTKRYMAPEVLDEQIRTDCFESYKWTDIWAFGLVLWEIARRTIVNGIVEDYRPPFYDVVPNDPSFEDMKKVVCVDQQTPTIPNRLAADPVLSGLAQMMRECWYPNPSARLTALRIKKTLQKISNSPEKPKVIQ
ALK6, sequence (O00238 14-502): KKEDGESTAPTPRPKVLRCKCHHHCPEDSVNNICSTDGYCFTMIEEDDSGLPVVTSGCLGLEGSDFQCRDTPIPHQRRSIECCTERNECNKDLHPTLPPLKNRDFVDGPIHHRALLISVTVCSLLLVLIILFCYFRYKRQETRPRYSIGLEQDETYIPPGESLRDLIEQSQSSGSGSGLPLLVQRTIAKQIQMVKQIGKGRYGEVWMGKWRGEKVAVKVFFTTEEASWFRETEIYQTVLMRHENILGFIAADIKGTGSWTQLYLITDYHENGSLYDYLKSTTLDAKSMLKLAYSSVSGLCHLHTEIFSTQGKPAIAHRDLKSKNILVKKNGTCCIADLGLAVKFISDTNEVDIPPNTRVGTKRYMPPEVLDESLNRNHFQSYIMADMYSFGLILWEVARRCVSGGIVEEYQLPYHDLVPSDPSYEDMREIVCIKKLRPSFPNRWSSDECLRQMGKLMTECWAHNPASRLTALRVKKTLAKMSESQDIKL
ALK3, sequence (P36894 24-532): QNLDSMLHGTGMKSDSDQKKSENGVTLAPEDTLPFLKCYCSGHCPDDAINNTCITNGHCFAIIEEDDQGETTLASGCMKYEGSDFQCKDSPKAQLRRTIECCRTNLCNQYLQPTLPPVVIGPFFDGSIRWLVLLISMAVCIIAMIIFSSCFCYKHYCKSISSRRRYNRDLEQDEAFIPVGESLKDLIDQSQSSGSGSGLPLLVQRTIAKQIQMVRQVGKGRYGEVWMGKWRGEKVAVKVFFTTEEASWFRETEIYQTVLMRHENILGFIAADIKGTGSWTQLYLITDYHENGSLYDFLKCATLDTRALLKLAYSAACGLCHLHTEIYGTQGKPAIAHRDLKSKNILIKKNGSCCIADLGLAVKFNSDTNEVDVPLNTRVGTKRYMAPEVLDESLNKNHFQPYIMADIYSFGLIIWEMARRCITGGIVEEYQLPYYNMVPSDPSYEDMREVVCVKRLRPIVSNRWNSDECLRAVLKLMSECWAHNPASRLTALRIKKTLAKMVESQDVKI
Procedure for ALK1: as §1
Procedure for ALK3: as §1
Procedure for ALK4: as §1
Procedure for ALK5: Six ALK kinase enzyme assays were developed for determination of compound activities on ALK1, ALK2, ALK3, ALK4, ALK5 and ALK6.
as §1
Procedure for ALK6: as §1

By IC50 is commonly meant the concentration at which inhibition is half-maximal. In the case of `C[C@@H]1CNC[C@H](C)N1c1ccc(-c2cnc3c(-c4cccc5c(CO)cccc45)cnn3c2)cc1` [Compound 20, (5-(6-(4-((2R,6S)-2,6-dimethylpiperazin-1-yl)phenyl)pyrazolo[1,5-a]pyrimidin-3-yl)naphthalen-1-yl)methanol], the IC50 on ALK4 came to 3960 nM; against ALK3, 240 nM; against ALK6, 3710 nM; against ALK5, 21700 nM; in assay [1] it was 1550 nM; at ALK2 [2], 16 nM. For the same molecule, the figures for the IC50 at ALK1 and at ALK2 [3] were 22 nM and 14 nM, respectively.
`C[C@@H]1CNC[C@H](C)N1c1ccc(-c2cnc3c(-c4cccc5c(C#N)cccc45)cnn3c2)cc1` [Compound 25, 5-(6-(4-((2R,6S)-2,6-dimethylpiperazin-1-yl)phenyl)pyrazolo[1,5-a]pyrimidin-3-yl)-1-naphthonitrile]: the 50% inhibitory concentration (IC50) against ALK4 was 1210 nM; on ALK3, 123 nM; at ALK6, 568 nM; at ALK5, 5340 nM; in assay [1] it was 2580 nM; on ALK2 [2] it was 27 nM. In addition, the half-maximal inhibitory concentration (IC50) against ALK1 worked out at 75 nM; on ALK2 [3] it was 114 nM.
In the case of `NC(=O)c1ccc(-c2cnn3cc(-c4ccc(N5C[C@@H]6C[C@H]5CN6)cc4)cnc23)c2ccccc12` [Compound 11, 4-(6-(4-((1 S,4S)-2,5-diazabicyclo[2.2.1]heptan-2-yl)phenyl)pyrazolo[1,5-a]pyrimidin-3-yl)-1-naphthamide], the IC50 against ALK4 worked out at 2990 nM; at ALK3, 112 nM; against ALK6 it was 2060 nM; on ALK5 it was 7020 nM; in assay [1] it was 645 nM; on ALK2 [2] it was 7 nM. Also, the IC50 at ALK1 is 30 nM; on ALK2 [3] it was 55 nM.
Take `CCNS(=O)(=O)c1cccc(-c2cnn3cc(-c4ccc(N5[C@H](C)CNC[C@@H]5C)cc4)cnc23)c1` [Compound 77, 3-(6-(4-((2R,6S)-2,6-dimethylpiperazin-1-yl)phenyl)pyrazolo[1,5-a]pyrimidin-3-yl)-N-ethylbenzenesulfonamide]: the 50% inhibitory concentration (IC50) against ALK4 is 4300 nM; against ALK3, 2100 nM; on ALK6, over 10000 nM; on ALK5, over 10000 nM; in assay [1] it was 423 nM; at ALK2 [2] it was 31 nM. Further, the figures for the IC50 at ALK1 and on ALK2 [3] were 110 nM and 28 nM, respectively.
Regarding `CS(=O)(=O)c1cccc(-c2cnn3cc(-c4ccc(CCN5CCCCC5)cc4)cnc23)c1` [Compound 86, 3-(3-(methylsulfonyl)phenyl)-6-(4-(2-(piperidin-1-yl)ethyl)phenyl)pyrazolo[1,5-a]pyrimidine], the IC50 at ALK4 was over 10000 nM; on ALK3, 1500 nM; against ALK6, over 10000 nM; at ALK5 it was over 10000 nM; in assay [1], 57000 nM; at ALK2 [2], 37 nM. Moreover, the 50% inhibitory concentration (IC50) is 170 nM against ALK1 and 419 nM at ALK2 [3].
Take `NC(=O)c1cccc2c(-c3cnn4cc(-c5ccc(N6C[C@@H]7C[C@H]6CN7)cc5)cnc34)cccc12` [Compound 12, 5-(6-(4-((1S,4S)-2,5-diazabicyclo[2.2.1]heptan-2-yl)phenyl)pyrazolo[1,5-a]pyrimidin-3-yl)-1-naphthamide]: the half-maximal inhibitory concentration (IC50) at ALK4 was found to be 2810 nM; on ALK3 it was 59 nM; against ALK6 it was 260 nM; against ALK5, 21500 nM; in assay [1], 1240 nM; on ALK2 [2], 8.3 nM. Further, the results for the IC50 against ALK1 and on ALK2 [3] were 34 nM and 68 nM, respectively.
In the case of `N=C(N)c1ccc(-c2cnn3cc(-c4ccc(N5CCNCC5)cc4)cnc23)cc1` [Compound 14, 4-(6-(4-(piperazin-1-yl)phenyl)pyrazolo[1,5-a]pyrimidin-3-yl)benzimidamide], the IC50 against ALK3 was 17600 nM; on ALK6, 16900 nM; against ALK5, 15600 nM; in assay [1], 44100 nM; against ALK2 [2], 916 nM; against ALK1, 3060 nM. The IC50 at ALK2 [3] turned out to be 4200 nM.
As for `CNC(=O)c1cccc2c(-c3cnn4cc(-c5ccc(N6CCNCC6)cc5)cnc34)cccc12` [Compound 7, N-methyl-5-(6-(4-(piperazin-1-yl)phenyl)pyrazolo[1,5-a]pyrimidin-3-yl)-1-naphthamide], the IC50 on ALK4 came to 30900 nM; against ALK3, 598 nM; against ALK6, 334 nM; in assay [1] it was 2930 nM; at ALK2 [2], 226 nM; on ALK1 it was 1590 nM. In addition, at ALK2 [3], the half-maximal inhibitory concentration (IC50) stood at 283 nM.
Take `CN(C)C(=O)c1cccc2c(-c3cnn4cc(-c5ccc(N6CCNCC6)cc5)cnc34)cccc12` [Compound 8, N,N-dimethyl-5-(6-(4-(piperazin-1-yl)phenyl)pyrazolo[1,5-a]pyrimidin-3-yl)-1-naphthamide]: the IC50 turned out to be 10800 nM against ALK3; 20700 nM at ALK6; 5540 nM in assay [1]; 6560 nM against ALK2 [2]; 8080 nM at ALK1; 2070 nM at ALK2 [3].
Take `N=C(N)c1ccc(-c2cnn3cc(-c4ccc(N5CCNCC5)cc4)cnc23)c2ccccc12` [Compound 16, 4-(6-(4-(piperazin-1-yl)phenyl)pyrazolo[1,5-a]pyrimidin-3-yl)-1-naphthimidamide]: the IC50 against ALK4 was determined as 73900 nM; against ALK3, 4930 nM; against ALK6, 74800 nM; in assay [1], 13500 nM; on ALK2 [2], 84 nM; at ALK1, 405 nM. In addition, the concentration for half-maximal inhibition (IC50) at ALK2 [3] came out at 890 nM.
`O=C(O)c1ccc(-c2cnn3cc(-c4ccc(N5CCNCC5)cc4)cnc23)c2ccccc12` [Compound 1, 4-(6-(4-(piperazin-1-yl)phenyl)pyrazolo[1,5-a]pyrimidin-3-yl)-1-naphthoic acid]: the IC50 on ALK3 turned out to be 984 nM; against ALK6, 1740 nM; in assay [1], 100000 nM; on ALK2 [2], 37 nM; at ALK1 it was 186 nM; at ALK2 [3] it was 8660 nM.
